Measured values: patent US4714619A, “Aminomalonyl alanine compounds as dietary sweeteners” (priority 1986, dated 1987)
Structures can show the parent of a compound that is named as a salt. Where two headings read alike, the source gives them in different places. One block for each compound: values may come before it. Where a SMILES comes first, the peptide text is derived from it.

What was measured:
[1] = Comparative taste test, D- versus L-configuration (Table 2, FIG. 3); set-up: Sweet? (average score) / Bitter? (average score) / Salty? (average score) / Off Taste? (average score) / After Taste? (average score): scale not given here
Protocol: The compounds were dissolved in distilled water at the concentrations specified in Table 2. Solutions were made up and kept overnight in a refrigerator. The following day, they were poured into individual graduated plastic cups (10 ml per cup) and allowed to warm to room temperature. A taste panel was convened and testing begun that same day. Tasting and evaluation was done by the standard protocol developed by Dr. Robert Gesteland of Taste and Smell Consulting Group, Inc.
The first solution tasted (reference standard for the panel) was 0.25M sucrose. Other solutions were tasted in radomized fashion. The random order was arrived at as follows:
i. An ordered list of the compounds and concentrations was prepared (26 solutions in all).
ii. 0.25M sucrose was designated as 1.
iii. A standard table of random numbers was used in which the numbers were grouped as two-digit numbers. A point in the table was chosen at random (blind pointing). The first solution in the list was given the first random number in the sequence (read right-to-left, up-to-down) which is between 2 and 26. The second solution in the list was given the next random number in the sequence between 2 and 26, etc. Repeat numbers were ignored.
iv. Solutions were then labeled A (for number 1) B (for random number 2), C-Z.
v. Panelists were instructed to taste the solutions in alphabetical order.
With the assistance of Taste and Smell Consulting Group, Inc., taste panel members were trained adn tested for their ability to discriminate sucrose solutions of varying concentrations. In summary it may be stated that all 9 panel members had acceptble correlation scores. Their results were in good agreement with those which have been previously reported in siilar types of studies. For the test series the correlations for each panelist for sucrose and aspartame were acceptable as were the overall results obtained by averaging individual scores. The results of the taste panel are set forth in Table 2 wherein the parenthetical figures represent the standard error values for the number above.

[2] = Taste panel (Table 1, FIG. 2); settings: for After Taste? (average score) / Bitter? (average score) / Off Taste? (average score) / Pleasant? (average score) / Salty? (average score) / Sweet? (average score): normalized to 100
[3] = Stability in aqueous solution (hplc, ambient temperature); format: physicochemical; settings: 0.05m phosphate buffer, ambient temperature, read-out: degradation
Protocol: Stability was examined in aqueous solution at various pHs. Solutions (1% w/v) were prepared in 0.05M phosphate buffer adjusted to pH 7.4 and pH 3.5. Storage at ambient temperature over 36 days was monitored by hplc analysis (waters radial-pak reverse phase C-8 column, 25% CH3 CN, 0.05% TFA/H2 O eluant, 210 nm U.V. detection). Aspartame was examined similarly for comparison purposes.

Compound: C[C@@H](NC(=O)C(N)C(=O)O)C(=O)OC12CC3CC(CC(C3)C1)C2 (mixture of isomers) [(22), DL-Aminomalonyl-D-alanine 1-Adamantyl Ester Citrate]
- sweet taste (words) [1]: sweet

Compound: CC(NC(=O)C(N)C(=O)O)C(=O)OC1CCCCC1C (mixture of isomers) [(23), DL-Aminomalonyl-D-alanine trans-2-Methylcyclohexyl Ester Citrate]
- sweet taste (words) [1]: sweet

Compound: CC(C)OC(=O)[C@H](C)NC(=O)C(N)C(=O)O (mixture of isomers) [Compound (20), DL-Aminomalonyl-L-alanine Isopropyl Ester]
- sweet taste (words) [1]: not sweet
- After Taste? (average score) ([1]; 0.0431 Millimolar): 0
- Bitter? (average score) ([1]; 0.0431 Millimolar): 9
- Off Taste? (average score) ([1]; 0.0431 Millimolar): 5
- Pleasant? (average score) ([1]; 0.0431 Millimolar): 14
- Salty? (average score) ([1]; 0.0431 Millimolar): 3
- Sweet? (average score) ([1]; 0.0431 Millimolar): 3
- After Taste? (average score) ([1]; 0.4307 Millimolar): 8
- Bitter? (average score) ([1]; 0.4307 Millimolar): 14
- Off Taste? (average score) ([1]; 0.4307 Millimolar): 8
- Pleasant? (average score) ([1]; 0.4307 Millimolar): 5
- Salty? (average score) ([1]; 0.4307 Millimolar): 16
- Sweet? (average score) ([1]; 0.4307 Millimolar): 8
- After Taste? (average score) ([1]; 4.3066 Millimolar): 5
- Bitter? (average score) ([1]; 4.3066 Millimolar): 0
- Off Taste? (average score) ([1]; 4.3066 Millimolar): 5
- Pleasant? (average score) ([1]; 4.3066 Millimolar): 19
- Salty? (average score) ([1]; 4.3066 Millimolar): 0
- Sweet? (average score) ([1]; 4.3066 Millimolar): 5
- sweet taste (words) ([1]; listed as 20): non-sweet

Compound: C[C@@H](NC(=O)C(N)C(=O)O)C(=O)OC1C2(C)CCC(C2)C1(C)C (mixture of isomers) [Compound (21), DL-Aminomalonyl-D-alanine Fenchyl Ester]
- sweet taste (words) [1]: sweet
- After Taste? (average score) ([1]; 0.0306 Millimolar): 12
- Bitter? (average score) ([1]; 0.0306 Millimolar): 3
- Off Taste? (average score) ([1]; 0.0306 Millimolar): 13
- Pleasant? (average score) ([1]; 0.0306 Millimolar): -9
- Salty? (average score) ([1]; 0.0306 Millimolar): 4
- Sweet? (average score) ([1]; 0.0306 Millimolar): 1
- After Taste? (average score) ([1]; 0.3064 Millimolar): 50
- Bitter? (average score) ([1]; 0.3064 Millimolar): 29
- Off Taste? (average score) ([1]; 0.3064 Millimolar): 56
- Pleasant? (average score) ([1]; 0.3064 Millimolar): -57
- Salty? (average score) ([1]; 0.3064 Millimolar): 9
- Sweet? (average score) ([1]; 0.3064 Millimolar): 8
- After Taste? (average score) ([1]; 3.0637 Millimolar): 79
- Bitter? (average score) ([1]; 3.0637 Millimolar): 90
- Off Taste? (average score) ([1]; 3.0637 Millimolar): 99
- Pleasant? (average score) ([1]; 3.0637 Millimolar): -83
- Salty? (average score) ([1]; 3.0637 Millimolar): 62
- Sweet? (average score) ([1]; 3.0637 Millimolar): 13

- degraded at 864 h ([3]; pH 3.5, 36 days): > 50%
- degraded at 216 h ([3]; pH 7.4 buffer, 9 days): 100%
Compound: COC(=O)[C@H](Cc1ccccc1)NC(=O)[C@@H](N)CC(=O)O [Aspartame, methyl ester of L-α-Aspartyl-L-phenylalanine] (HELM PEPTIDE1{D.F.[CO[*:1]]}$$$$V2.0)
- After Taste? (average score) ([2]; 0.3392 Millimolar): 1
- Bitter? (average score) ([2]; 0.3392 Millimolar): 0
- Off Taste? (average score) ([2]; 0.3392 Millimolar): 1
- Pleasant? (average score) ([2]; 0.3392 Millimolar): 4
- Salty? (average score) ([2]; 0.3392 Millimolar): 1
- Sweet? (average score) ([2]; 0.3392 Millimolar): 15
- After Taste? (average score) ([2]; 1.0194 Millimolar): 2
- Bitter? (average score) ([2]; 1.0194 Millimolar): 0
- Off Taste? (average score) ([2]; 1.0194 Millimolar): 4
- Pleasant? (average score) ([2]; 1.0194 Millimolar): 15
- Salty? (average score) ([2]; 1.0194 Millimolar): 3
- Sweet? (average score) ([2]; 1.0194 Millimolar): 27
- After Taste? (average score) ([2]; 3.3979 Millimolar): 26
- Bitter? (average score) ([2]; 3.3979 Millimolar): 4
- Off Taste? (average score) ([2]; 3.3979 Millimolar): 2
- Pleasant? (average score) ([2]; 3.3979 Millimolar): 26
- Salty? (average score) ([2]; 3.3979 Millimolar): 2
- Sweet? (average score) ([2]; 3.3979 Millimolar): 68
- After Taste? (average score) ([2]; 10.1937 Millimolar): 34
- Bitter? (average score) ([2]; 10.1937 Millimolar): 0
- Off Taste? (average score) ([2]; 10.1937 Millimolar): 4
- Pleasant? (average score) ([2]; 10.1937 Millimolar): 9
- Salty? (average score) ([2]; 10.1937 Millimolar): 1
- Sweet? (average score) ([2]; 10.1937 Millimolar): 83
- sweetness potency (reciprocal of concentration required for a score of 50) ([2]; sucrose=1.0, weight scale): 126
- taste quality ([2]; taste panel): sweet and pleasant
- After Taste? (average score) ([1]; 0.3398 Millimolar): 1
- Bitter? (average score) ([1]; 0.3398 Millimolar): 1
- Off Taste? (average score) ([1]; 0.3398 Millimolar): 1
- Pleasant? (average score) ([1]; 0.3398 Millimolar): 16
- Salty? (average score) ([1]; 0.3398 Millimolar): 0
- Sweet? (average score) ([1]; 0.3398 Millimolar): 9
- After Taste? (average score) ([1]; 1.0194 Millimolar): 7
- Bitter? (average score) ([1]; 1.0194 Millimolar): 3
- Off Taste? (average score) ([1]; 1.0194 Millimolar): 6
- Pleasant? (average score) ([1]; 1.0194 Millimolar): 8
- Salty? (average score) ([1]; 1.0194 Millimolar): 10
- Sweet? (average score) ([1]; 1.0194 Millimolar): 27
- After Taste? (average score) ([1]; 3.3979 Millimolar): 16
- Bitter? (average score) ([1]; 3.3979 Millimolar): 2
- Off Taste? (average score) ([1]; 3.3979 Millimolar): 12
- Pleasant? (average score) ([1]; 3.3979 Millimolar): 22
- Salty? (average score) ([1]; 3.3979 Millimolar): 3
- Sweet? (average score) ([1]; 3.3979 Millimolar): 66
- After Taste? (average score) ([1]; 10.1937 Millimolar): 22
- Bitter? (average score) ([1]; 10.1937 Millimolar): 5
- Off Taste? (average score) ([1]; 10.1937 Millimolar): 17
- Pleasant? (average score) ([1]; 10.1937 Millimolar): 12
- Salty? (average score) ([1]; 10.1937 Millimolar): 0
- Sweet? (average score) ([1]; 10.1937 Millimolar): 64

Compound: OC[C@H]1O[C@@](CO)(O[C@H]2O[C@H](CO)[C@@H](O)[C@H](O)[C@H]2O)[C@@H](O)[C@@H]1O [Sucrose]
- After Taste? (average score) ([2]; 62.0000 Millimolar): 0
- Bitter? (average score) ([2]; 62.0000 Millimolar): 3
- Off Taste? (average score) ([2]; 62.0000 Millimolar): 4
- Pleasant? (average score) ([2]; 62.0000 Millimolar): -4
- Salty? (average score) ([2]; 62.0000 Millimolar): 0
- Sweet? (average score) ([2]; 62.0000 Millimolar): 13
- After Taste? (average score) ([2]; 125.0000 Millimolar): 5
- Bitter? (average score) ([2]; 125.0000 Millimolar): 2
- Off Taste? (average score) ([2]; 125.0000 Millimolar): 4
- Pleasant? (average score) ([2]; 125.0000 Millimolar): 18
- Salty? (average score) ([2]; 125.0000 Millimolar): 8
- Sweet? (average score) ([2]; 125.0000 Millimolar): 30
- After Taste? (average score) ([2]; 250.0000 Millimolar): 0
- Bitter? (average score) ([2]; 250.0000 Millimolar): 0
- Off Taste? (average score) ([2]; 250.0000 Millimolar): 0
- Pleasant? (average score) ([2]; 250.0000 Millimolar): 49
- Sweet? (average score) ([2]; 250.0000 Millimolar): 64
- After Taste? (average score) ([2]; 500.0000 Millimolar): 7
- Bitter? (average score) ([2]; 500.0000 Millimolar): 6
- Off Taste? (average score) ([2]; 500.0000 Millimolar): 5
- Pleasant? (average score) ([2]; 500.0000 Millimolar): 32
- Salty? (average score) ([2]; 500.0000 Millimolar): 12
- Sweet? (average score) ([2]; 500.0000 Millimolar): 75
- After Taste? (average score) ([2]; 1000.0000 Millimolar): 30
- Bitter? (average score) ([2]; 1000.0000 Millimolar): 0
- Off Taste? (average score) ([2]; 1000.0000 Millimolar): 0
- Pleasant? (average score) ([2]; 1000.0000 Millimolar): 26
- Salty? (average score) ([2]; 1000.0000 Millimolar): 1
- Sweet? (average score) ([2]; 1000.0000 Millimolar): 97
- After Taste? (average score) ([1]; 62.0000 Millimolar): 10
- Bitter? (average score) ([1]; 62.0000 Millimolar): 6
- Off Taste? (average score) ([1]; 62.0000 Millimolar): 9
- Pleasant? (average score) ([1]; 62.0000 Millimolar): 17
- Salty? (average score) ([1]; 62.0000 Millimolar): 9
- Sweet? (average score) ([1]; 62.0000 Millimolar): 3
- After Taste? (average score) ([1]; 125.0000 Millimolar): 4
- Bitter? (average score) ([1]; 125.0000 Millimolar): 2
- Off Taste? (average score) ([1]; 125.0000 Millimolar): 3
- Pleasant? (average score) ([1]; 125.0000 Millimolar): 21
- Salty? (average score) ([1]; 125.0000 Millimolar): 1
- Sweet? (average score) ([1]; 125.0000 Millimolar): 30
- After Taste? (average score) ([1]; 250.0000 Millimolar): 15
- Bitter? (average score) ([1]; 250.0000 Millimolar): 3
- Off Taste? (average score) ([1]; 250.0000 Millimolar): 12
- Pleasant? (average score) ([1]; 250.0000 Millimolar): 34
- Salty? (average score) ([1]; 250.0000 Millimolar): 7
- Sweet? (average score) ([1]; 250.0000 Millimolar): 52
- After Taste? (average score) ([1]; 500.0000 Millimolar): 9
- Bitter? (average score) ([1]; 500.0000 Millimolar): 0
- Off Taste? (average score) ([1]; 500.0000 Millimolar): 10
- Pleasant? (average score) ([1]; 500.0000 Millimolar): 35
- Salty? (average score) ([1]; 500.0000 Millimolar): 0
- Sweet? (average score) ([1]; 500.0000 Millimolar): 78
- After Taste? (average score) ([1]; 1000.0000 Millimolar): 8
- Bitter? (average score) ([1]; 1000.0000 Millimolar): 0
- Off Taste? (average score) ([1]; 1000.0000 Millimolar): 12
- Pleasant? (average score) ([1]; 1000.0000 Millimolar): 28
- Salty? (average score) ([1]; 1000.0000 Millimolar): 0
- Sweet? (average score) ([1]; 1000.0000 Millimolar): 95
